Measured values taken from patent US20250263404A1, “AMINOPYRIDINES AS ACTIVATORS OF PI3 KINASE” (UCL Business Ltd, priority 2021, published 2025).

Assays:
PI3Kδ = target: T1, PI3Kδ (Homo sapiens, UniProt O00329); test: ADP-Glo in vitro lipid kinase assay, PI3Kδ; format: biochemical
T1 construct: Full-length p110β/p85α and p110δ/p85α were cloned and expressed in a similar manner; Strep-tag followed by TEV protease site (N, cleaved yes); made in house; host or cells: Spodoptera frugiperda Sf9 (plasmids OP833 and OP809)
T1 sequence (O00329 whole entry, species assumed): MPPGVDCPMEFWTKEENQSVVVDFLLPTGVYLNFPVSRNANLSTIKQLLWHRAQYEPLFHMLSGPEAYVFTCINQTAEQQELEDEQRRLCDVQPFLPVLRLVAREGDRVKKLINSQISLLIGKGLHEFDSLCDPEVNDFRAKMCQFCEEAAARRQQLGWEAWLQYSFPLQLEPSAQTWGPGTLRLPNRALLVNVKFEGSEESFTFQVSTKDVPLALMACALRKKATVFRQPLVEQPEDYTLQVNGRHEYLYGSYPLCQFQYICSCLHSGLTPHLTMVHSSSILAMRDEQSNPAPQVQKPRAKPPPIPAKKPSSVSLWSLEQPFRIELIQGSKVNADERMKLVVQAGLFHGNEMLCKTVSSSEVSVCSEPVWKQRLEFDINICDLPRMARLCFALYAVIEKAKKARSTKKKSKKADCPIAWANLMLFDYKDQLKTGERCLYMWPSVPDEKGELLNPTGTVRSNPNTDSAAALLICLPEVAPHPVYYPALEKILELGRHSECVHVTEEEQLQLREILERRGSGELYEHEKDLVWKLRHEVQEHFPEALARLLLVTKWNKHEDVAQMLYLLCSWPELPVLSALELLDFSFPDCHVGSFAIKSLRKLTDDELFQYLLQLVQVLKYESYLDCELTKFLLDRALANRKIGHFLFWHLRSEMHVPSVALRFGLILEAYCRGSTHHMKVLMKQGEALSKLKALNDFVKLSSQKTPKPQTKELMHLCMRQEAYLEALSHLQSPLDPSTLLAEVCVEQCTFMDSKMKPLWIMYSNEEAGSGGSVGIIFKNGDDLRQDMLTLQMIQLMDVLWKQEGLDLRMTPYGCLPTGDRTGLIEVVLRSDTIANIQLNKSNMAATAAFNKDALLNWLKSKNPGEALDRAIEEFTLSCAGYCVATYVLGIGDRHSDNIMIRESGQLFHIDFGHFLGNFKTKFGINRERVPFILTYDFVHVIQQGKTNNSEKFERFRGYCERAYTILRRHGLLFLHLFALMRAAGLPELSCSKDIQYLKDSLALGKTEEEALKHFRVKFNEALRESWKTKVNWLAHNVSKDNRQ
T1 sequence (P27986 whole entry partner, species assumed): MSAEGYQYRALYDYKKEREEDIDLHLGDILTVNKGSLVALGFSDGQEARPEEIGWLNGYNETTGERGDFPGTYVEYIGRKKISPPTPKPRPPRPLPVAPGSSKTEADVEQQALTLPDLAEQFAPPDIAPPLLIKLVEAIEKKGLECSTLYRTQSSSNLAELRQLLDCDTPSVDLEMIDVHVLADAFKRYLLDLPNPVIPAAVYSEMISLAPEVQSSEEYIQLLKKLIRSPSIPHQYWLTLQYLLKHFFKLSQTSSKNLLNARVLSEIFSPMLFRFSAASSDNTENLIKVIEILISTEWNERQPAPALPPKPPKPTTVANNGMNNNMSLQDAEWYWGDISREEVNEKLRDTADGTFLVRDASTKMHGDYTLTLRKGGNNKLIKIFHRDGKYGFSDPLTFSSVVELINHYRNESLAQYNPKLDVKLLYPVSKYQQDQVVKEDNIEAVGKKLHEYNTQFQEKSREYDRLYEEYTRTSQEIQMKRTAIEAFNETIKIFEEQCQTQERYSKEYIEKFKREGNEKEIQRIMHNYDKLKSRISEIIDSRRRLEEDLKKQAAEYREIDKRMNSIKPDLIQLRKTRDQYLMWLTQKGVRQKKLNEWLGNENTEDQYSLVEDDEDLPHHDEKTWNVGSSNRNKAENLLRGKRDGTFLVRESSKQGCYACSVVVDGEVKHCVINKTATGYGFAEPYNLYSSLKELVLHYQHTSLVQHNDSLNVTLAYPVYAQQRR
Description: (§1) The effect of 1938 on the in vitro lipid kinase activity of p85α in complex with p110α, p110β or p110δ (further referred to as PI3Kα, PI3Kβ and PI3Kδ) was tested. As a positive control, a bis-phosphorylated phosphopeptide (a PDGF-receptor-derived peptide phosphorylated on Tyr-740 and Tyr-751, hereafter referred to as pY peptide) was used to mimic engagement of the p85α SH2 domains with tyrosine-phosphorylated peptides in membrane-bound receptors and adaptor proteins, known to activate the PI3Kα complex.
(§2) Kinase reactions were performed with ADP-Glo kinase assay kit (Promega Corporation). The enzyme, substrate and compounds were diluted in reaction buffer (20 mM HEPES, 50 mM NaCl, 50 mM KCl, 3 mM MgCl2, 1 mM EGTA, 1 mM TCEP, pH 7.4). Final concentrations of PI3Kα and PI3Kδ used were 25 nM and 50 nM for PI3Kβ. […]
(§3) For compound profiling, the reaction mixture contained 2 μl PI3K enzyme, 2 μl compound and/or pY and 2 μl of liposome substrate mixed with ATP. […] Luminescence was read using a Sense (Hidex) plate reader. […]
(§4) For characterisation of the effects of 1938 on in vitro PI3K enzymology, all reactions were performed at room temperature with 384 white-polystyrene plates (Corning #3574). […] For enzyme kinetic calculations, data was expressed as velocity (pmol of ADP generated/sec). […]

PI3Kα = PI3Kα (Homo sapiens, UniProt P42336); test: pAKT S473 ELISA in A549 cells (PI3Kα activation); format: cell-based; design: endogenous in cells; host or cells: A549; conditions: A549 cells
Chain of PI3Kα (P42336 whole entry): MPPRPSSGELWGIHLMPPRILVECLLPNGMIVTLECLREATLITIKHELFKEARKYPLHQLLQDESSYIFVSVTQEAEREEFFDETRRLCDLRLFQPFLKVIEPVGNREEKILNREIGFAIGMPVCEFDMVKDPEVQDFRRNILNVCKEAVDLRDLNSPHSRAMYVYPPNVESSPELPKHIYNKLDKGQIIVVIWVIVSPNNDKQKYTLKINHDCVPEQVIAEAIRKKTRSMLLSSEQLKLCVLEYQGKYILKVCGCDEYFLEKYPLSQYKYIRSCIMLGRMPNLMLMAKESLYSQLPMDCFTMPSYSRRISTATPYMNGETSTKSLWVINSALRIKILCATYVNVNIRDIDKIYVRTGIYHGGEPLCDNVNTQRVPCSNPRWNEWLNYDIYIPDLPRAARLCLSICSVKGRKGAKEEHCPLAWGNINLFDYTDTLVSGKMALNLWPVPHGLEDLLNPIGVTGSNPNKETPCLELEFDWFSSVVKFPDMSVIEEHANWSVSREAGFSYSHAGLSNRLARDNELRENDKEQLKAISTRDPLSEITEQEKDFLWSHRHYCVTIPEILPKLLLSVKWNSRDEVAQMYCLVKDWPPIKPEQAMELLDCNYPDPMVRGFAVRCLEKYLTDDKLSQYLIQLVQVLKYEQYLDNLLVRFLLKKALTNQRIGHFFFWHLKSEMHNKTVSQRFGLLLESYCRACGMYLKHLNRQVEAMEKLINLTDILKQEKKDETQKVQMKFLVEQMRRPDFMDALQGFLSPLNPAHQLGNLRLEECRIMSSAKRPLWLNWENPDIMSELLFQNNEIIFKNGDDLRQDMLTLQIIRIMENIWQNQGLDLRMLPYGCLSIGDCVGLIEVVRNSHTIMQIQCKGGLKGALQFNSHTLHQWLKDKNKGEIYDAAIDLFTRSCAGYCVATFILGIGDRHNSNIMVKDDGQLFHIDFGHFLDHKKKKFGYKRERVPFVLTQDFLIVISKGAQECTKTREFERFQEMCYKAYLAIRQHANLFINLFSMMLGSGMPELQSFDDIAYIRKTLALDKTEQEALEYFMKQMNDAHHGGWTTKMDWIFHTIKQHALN
Chain of PI3Kα (P27986 whole entry partner): as the sequence (P27986 whole entry partner, species assumed) above
Description: EC50 values were determined by quantifying phosphorylation on S473 residues of Akt in A549 human adenocarcinoma cells by ELISA (enzyme linked immunoadsorbent assay, R&D Systems, DYC887BE). A549 cells were seeded into 96-well plates (50,000 cells/well) in DMEM supplemented with 10% foetal bovine serum and 1% penicillin-streptomyocin. Following 24 h in culture cells were starved for 24 h in serum-free DMEM before 15 minute treatment with a concentration response curve of compounds. Experimental compounds were diluted in DMSO into […] 1:3 concentration response curves in polypropylene V-bottom plates (SLS MIC9050). Concentration response curves were diluted to a 3× stock in serum-free DMEM. Standard 8-point concentration response curves were performed at 50, 16.7, 5.6, 1.9, 0.6, 0.2, 0.07, 0.02 μM and serum-free DMEM containing 0.5% DMSO was used as a negative control. […] A549 cells were seeded at 50,000 cells per well in 96-well plates in DMEM (10% FBS+1% P/S). The next day cells were washed once with PBS before addition of serum-free DMEM for 24 h. On the day of treatment cells, were incubated in fresh serum-free DMEM prior to treatment. Compounds solubilised to 10 mM in DMSO were diluted 1:3 in an 8-point concentration response curve in DMSO. Concentration response curves were diluted in serum-free DMEM by transfer into intermediate plates using a BRAVO liquid handler (Agilent). Intermediate plates were then used to treat cell plates using the BRAVO liquid handler. Compound concentration response curves had atop concentration of 50 μM and a final well concentration of 0.5% DMSO. Cell plates were treated for 15 min at 37° C., 5% CO2 before being washed with ice-cold PBS and lysed in lysis buffer 6 (R&D Systems #895561) and freezing at −80° C. Levels of pAKT-S473 were determined using the phospho-AKT (S473) pan-specific Duoset IC ELISA (R&D Systems #DYC887BE) in 96-well white high-binding plates (Corning #3922) according to manufacturer's instructions. Endpoint luminescence was measured using a Sense (Hidex) platereader. […] Data were transformed and EC50 data were determined by variable slope (4 parameters) non-linear regression using Prism 7 (Graphpad).

PI3Kβ = target: T2, PI3Kβ (Homo sapiens, UniProt P42338); test: ADP-Glo in vitro lipid kinase assay, PI3Kβ; format: biochemical
T2 construct: Full-length p110β/p85α and p110δ/p85α were cloned and expressed in a similar manner; Strep-tag followed by TEV protease site (N, cleaved yes); made in house; host or cells: Spodoptera frugiperda Sf9 (plasmids OP832 and OP809)
T2 sequence (P42338 whole entry, species assumed): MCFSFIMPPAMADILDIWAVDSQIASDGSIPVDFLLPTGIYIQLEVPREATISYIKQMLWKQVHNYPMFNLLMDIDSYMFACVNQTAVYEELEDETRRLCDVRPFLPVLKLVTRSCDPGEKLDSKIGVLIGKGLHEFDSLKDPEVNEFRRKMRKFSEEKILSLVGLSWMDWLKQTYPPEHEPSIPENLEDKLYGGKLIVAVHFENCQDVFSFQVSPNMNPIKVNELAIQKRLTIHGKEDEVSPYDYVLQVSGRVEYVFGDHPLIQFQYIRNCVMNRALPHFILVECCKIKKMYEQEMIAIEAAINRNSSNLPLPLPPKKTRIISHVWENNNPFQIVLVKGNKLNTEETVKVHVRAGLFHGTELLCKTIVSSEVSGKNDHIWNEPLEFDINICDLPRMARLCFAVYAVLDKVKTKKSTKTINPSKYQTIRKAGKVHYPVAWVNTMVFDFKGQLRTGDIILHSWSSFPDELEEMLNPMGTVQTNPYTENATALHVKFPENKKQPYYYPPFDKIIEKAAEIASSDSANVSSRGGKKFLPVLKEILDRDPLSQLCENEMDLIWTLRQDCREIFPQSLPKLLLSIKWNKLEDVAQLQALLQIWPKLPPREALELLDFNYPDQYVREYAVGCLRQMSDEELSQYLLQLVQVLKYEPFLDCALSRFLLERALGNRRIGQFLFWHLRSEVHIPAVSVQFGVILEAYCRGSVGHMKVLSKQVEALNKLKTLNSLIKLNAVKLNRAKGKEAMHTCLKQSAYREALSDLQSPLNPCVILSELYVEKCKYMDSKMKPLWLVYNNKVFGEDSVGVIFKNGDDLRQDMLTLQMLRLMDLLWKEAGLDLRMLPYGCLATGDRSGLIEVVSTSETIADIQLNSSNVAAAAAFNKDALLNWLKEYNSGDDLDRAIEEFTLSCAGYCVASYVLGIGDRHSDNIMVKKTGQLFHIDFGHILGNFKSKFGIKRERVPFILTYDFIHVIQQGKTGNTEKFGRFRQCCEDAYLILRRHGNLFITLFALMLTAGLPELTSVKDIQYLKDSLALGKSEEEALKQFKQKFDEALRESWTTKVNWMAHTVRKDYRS
T2 sequence (P27986 whole entry partner, species assumed): as the sequence (P27986 whole entry partner, species assumed) above
Description: as §1, §2, §3, §4

effect on in vitro lipid kinase activity of PI3Kδ (PI3Kδ): not PI3Kβ or PI3Kδ | EC50 (PI3Kα; EC50 for induction of pAKT, 15 min treatment): 2 to 4 µM | Emax (PI3Kα; read-out: AKT phosphorylation, % of Emax of 1 μM insulin, doses of 5-10 μM 1938): ~200% | effect on in vitro lipid kinase activity of PI3Kβ (PI3Kβ): not PI3Kβ
Structure (SMILES): CCN1CCN(c2ccc(Nc3cc(Nc4cccc5c4N(C(C)=O)CC5)ccn3)cc2)CC1 [Example 1938]
